US20060229358A1, “Pharmaceutical composition containing flavonoids” (Taipei Medical University, priority 2005, published 2006)
Like-named read-outs stand apart in the source and are kept apart here.

What was measured:
PDE2 = target: T1, PDE2 (Cavia porcellus, UniProt A0A286XUV5); experiment: Inhibition of cyclic nucleotide PDE activity (Assay I), PDE2; type: biochemical, guinea pig
T1 sequence (A0A286XUV5 22-936): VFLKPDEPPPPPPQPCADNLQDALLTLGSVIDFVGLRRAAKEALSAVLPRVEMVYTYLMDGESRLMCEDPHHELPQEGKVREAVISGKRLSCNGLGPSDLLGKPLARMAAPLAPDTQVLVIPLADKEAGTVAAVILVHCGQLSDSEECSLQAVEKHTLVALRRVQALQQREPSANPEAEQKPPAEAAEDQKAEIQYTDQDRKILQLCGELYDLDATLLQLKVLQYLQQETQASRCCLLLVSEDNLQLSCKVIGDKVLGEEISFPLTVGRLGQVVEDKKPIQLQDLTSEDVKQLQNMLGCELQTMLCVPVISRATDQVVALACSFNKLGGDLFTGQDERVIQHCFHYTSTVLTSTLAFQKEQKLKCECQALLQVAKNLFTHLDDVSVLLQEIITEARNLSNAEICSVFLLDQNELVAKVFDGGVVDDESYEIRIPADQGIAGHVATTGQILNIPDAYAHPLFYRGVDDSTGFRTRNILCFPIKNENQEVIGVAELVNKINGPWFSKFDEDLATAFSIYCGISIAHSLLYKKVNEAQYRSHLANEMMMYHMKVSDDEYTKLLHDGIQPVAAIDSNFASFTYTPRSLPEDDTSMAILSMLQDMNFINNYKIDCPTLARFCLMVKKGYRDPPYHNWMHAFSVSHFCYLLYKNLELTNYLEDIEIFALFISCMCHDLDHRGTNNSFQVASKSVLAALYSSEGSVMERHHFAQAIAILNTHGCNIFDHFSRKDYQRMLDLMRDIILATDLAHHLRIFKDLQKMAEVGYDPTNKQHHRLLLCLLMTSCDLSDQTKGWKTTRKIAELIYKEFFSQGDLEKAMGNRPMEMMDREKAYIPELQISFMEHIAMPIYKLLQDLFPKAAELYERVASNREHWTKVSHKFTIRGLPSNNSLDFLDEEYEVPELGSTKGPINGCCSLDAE
Protocol: (§1) Under a protocol approved by the Animal Care and Use Committee of Taipei Medical University, five male guinea pigs (Hartley), weighing 500-600 g, were sacrificed. The lungs (15 g) or hearts (4 g) taken therefrom were chopped into small pieces and homogenized with a glass/teflon homogenizer (Glas-Col, Terre Haute, Ind., USA) in 10 volumes of cold medium (pH 6.5) containing 20 mM Bis-Tris, 2 mM benzamidine, 2 mM EDTA, 50 mM sodium chloride, 0.1 mM phenylmethanesulfonyl fluoride (PMSF), and 1 mM dithiothreitol. At 4° C., the homogenate was centrifuged at 170 g for 15 min, and the supernatant thereof was then re-centrifuged at 40,000 g for 30 min. […] The column was washed with two bed volumes of homogenate buffer to remove unbound material, where the resin beads therein will bind with proteins, such as PDE proteins. Proteins bound to the Q-sepharose beads were eluted with various concentrations (0.23, 0.34, 0.44, 0.69, and 1.00 M) of NaCl dissolved in homogenate buffer (for each concentration, 40-50 mL elution buffer were applied) at a flow rate of 30 ml/h. Fractions (3 ml each) were collected, and ethylene glycol (EG) was added thereto until a final concentration of 30% (v/v). And then the samples were frozen at −70° C.
(§2) The activities of PDE1-5 in the homogenate were measured with a two-step procedure according to the method of Thompson and Appleman, using cAMP with [^3H]-cAMP or cGMP with [^3 H]-cGMP as substrates. The PDE enzyme prepared (25 μl) with 10 μl inhibitor or the solvents therefor was incubated for 30 min at 37° C. in a total assay buffer, where the final volume of the assay is amounted to 100 μl. In accordance with the features of the PDE isozymes, the assay buffer contains 50 mM Tris/HCl (pH 7.4), 3 mM MgCl2, 1 mM dithiothreitol, and 0.05% BSA, and optionally contains 1 uM cAMP with 0.2 μCi [^3H]-cAMP as a substrate alone or in the presence of 0.1 unit calmodulin with 10 μM CaCl2, or 5 μM cGMP, and 1 μM cGMP with 0.2 μCi [^3H]-cGMP as another substrate alone or in the presence of 0.1 unit calmodulin with 10 μM CaCl2.
(§3) The PDE enzyme and the inhibitors (or their solvent) therefor were mixed and incubated on ice for 30 min previously, and then mixed with the assay buffer. The assay was initiated by transferring the mixture to a water bath at 37° C. Following the other 30 min incubation, the reaction was stopped by transferring the reaction vessel to a bath of boiling water for 3 min. After cooling on ice, 20 μl of the 1 mg/ml of Crotalus atrox venom was added to the reaction mixture, and the mixture was incubated at 37° C. for 10 min. The uncatalyzed substrates, such as cAMP, [^3H]-cAMP, cGMP, or [^3H]-cGMP were removed by the addition of 500 μl of a 1-in-1 Tris-HCl (40 mM) buffer suspension of Dowex resin (1×8-200) with incubation on ice for 30 min, since the bindings of the cyclic nucleotides and the resin. Each tube was then centrifuged for 2 min at 6000 rpm, and 100 μl of the supernatant was removed and counted by a β-counter for calculating the enzyme (PDEs) activity.
(§4) The IC50 values of flavonoids and various reference drugs were calculated using non-linear regression analysis by the software SigmaPlot 7.0 (Sigma Chemical, St. Louis Mo., USA). All values are shown as the mean±S.E.M. Differences among values, which are equal or greater to three groups, were statistically calculated by one-way analysis of variance (ANOVA), and then determined by the least significant difference (LSD). The difference between two values, however, was determined by use of Student's unpaired t-test. Differences were considered statistically significant if the P-value was less than 0.05.

PDE3 = experiment: Inhibition of cyclic nucleotide PDE activity (Assay I), PDE3; type: biochemical, guinea pig; conditions: mean ± S.E.M. (n); read-out: IC50 on phosphodiesterase isozyme 3
Protocol: as §1, §2, §3, §4

[1] = mean ± S.E.M. (n), read-out: IC50 on phosphodiesterase isozyme 2

Row | SMILES | IC50 (PDE2; [1]) | IC50 (PDE3) | IC50 (PDE2)
1 | O=C1CC(c2ccc(O)c(O)c2)Oc2cc(O)cc(O)c21 (stereo not drawn) [Eriodictyol] | > 100 µM | 52.5 ± 17.7 µM | 
2 | O=c1c(O)c(-c2ccc(O)c(O)c2)oc2cc(O)cc(O)c12 [Quercetin] | 17.9 ± 3.4 µM | 5.6 ± 1 µM | 
3 | O=c1cc(-c2ccc(O)c(O)c2)oc2cc(O[C@@H]3O[C@H](CO)[C@@H](O)[C@H](O)[C@H]3O)cc(O)c12 [Luteolin-7-glucoside] | 35.1 ± 0.2 µM | > 100 µM | 
4 | COc1ccc(-c2coc3cc(O)cc(O)c3c2=O)cc1 [Biochanin A] | 27.9 ± 4.1 µM | > 100 µM | 
5 | O=c1c(-c2ccc(O)cc2)coc2cc(O)cc(O)c12 [Genistein] | 1.7 ± 0.2 µM | 12.9 ± 5.2 µM | 
6 | O=c1cc(-c2ccc(O)c(O)c2)oc2cc(O)cc(O)c12 [Luteolin] | 13.3 ± 0.8 µM | 10.1 ± 1.8 µM | 
7 | O=c1cc(-c2ccccc2)oc2cc(O)cc(O)c12 [Chrysin] | > 100 µM | > 100 µM | 
8 | COc1ccc(C2CC(=O)c3c(O)cc(O)cc3O2)cc1O (stereo not drawn) [Hesperetin] | > 100 µM | > 100 µM | 
9 | O=c1c(O)c(-c2cc(O)c(O)c(O)c2)oc2cc(O)cc(O)c12 [Myricetin] | 12.8 ± 0.6 µM | 12.4 ± 3.3 µM | 
10 | O=c1c(-c2ccc(O)cc2)coc2cc(O)ccc12 [Daidzein] | > 100 µM | 28.6 ± 8.5 µM | 
11 | COc1cc(O)c2c(=O)c(-c3ccc(O)cc3)coc2c1 [Prunetin] |  | > 100 µM | > 100 µM
12 | O=c1cc(-c2ccc(O)cc2)oc2cc(O)cc(O)c12 [Apigenin] | 16.7 ± 6.3 µM | 10.5 ± 3.5 µM | 
